# Like-named read-outs stand apart in the source and are kept apart here.
# Key:
# [1] = test system: Corynebacterium pyogenes C-21; test: In vitro antibacterial activity (MIC, agar dilution method); format: cell-based
# Protocol: (§1) The minimum inhibitory concentrations (MIC, μg/ml) of the following compounds in vitro were measured by the agar dilution method of [Chemotherapy, Vol. 22, No. 16, page 1126 (1974)].
# [2] = test system: Enterobacter cloacae P-2540; test: as above; format: cell-based
# Protocol: as §1
# [3] = test system: Escherichia coli NIHJ JC-2; test: as above; format: cell-based
# Protocol: as §1
# Escherichia coli P-140a = test: as above; format: cell-based; settings: read-out: minimum inhibitory concentration (MIC)
# Protocol: as §1
# Escherichia coli P-5101 [4] = test: as above; format: cell-based
# Protocol: as §1
# [5] = test system: Klebsiella pneumoniae No. 13; test: as above; format: cell-based
# Protocol: as §1
# Proteus mirabilis P-2381 = test: as above; format: cell-based
# Protocol: as §1
# Proteus morganii Kono = test: as above; format: cell-based; settings: Morganella morganii, read-out: minimum inhibitory concentration (MIC)
# Protocol: as §1
# [6] = test system: Pseudomonas aeruginosa No. 12; test: as above; format: cell-based
# Protocol: as §1
# [7] = test system: Pseudomonas aeruginosa Tsuchiijima; test: as above; format: cell-based; settings: read-out: minimum inhibitory concentration (MIC)
# Protocol: as §1
# [8] = test system: Salmonella enteritidis No. 1891; test: as above; format: cell-based; settings: Salmonella enterica, read-out: minimum inhibitory concentration (MIC)
# Protocol: as §1
# [9] = test system: Salmonella typhimurium S-9; test: as above; format: cell-based; settings: Salmonella enterica, read-out: minimum inhibitory concentration (MIC)
# Protocol: as §1
# [10] = test system: Serratia marcescens IFO 3736; test: as above; format: cell-based
# Protocol: as §1
# Shigella flexneri 2a = test: as above; format: cell-based; settings: read-out: minimum inhibitory concentration (MIC)
# Protocol: as §1
# [11] = test system: Shigella flexneri 4a P-330; test: as above; format: cell-based; settings: 4AP330, read-out: minimum inhibitory concentration (MIC)
# Protocol: as §1
# [12] = test system: Staphylococcus aureus 209P JC-1; test: as above; format: cell-based; settings: read-out: minimum inhibitory concentration (MIC)
# Protocol: as §1
# [13] = test system: Staphylococcus aureus No. 50774; test: as above; format: cell-based
# Protocol: as §1
# [14] = test system: Staphylococcus aureus No. 80; test: as above; format: cell-based
# Protocol: as §1
# [15] = test system: Staphylococcus aureus Smith; test: as above; format: cell-based; settings: read-out: minimum inhibitory concentration (MIC)
# Protocol: as §1
# [16] = test system: Staphylococcus epidermidis No. 8; test: as above; format: cell-based
# Protocol: as §1
# [17] = test system: Streptococcus faecalis P-2473; test: as above; format: cell-based; settings: Enterococcus faecalis, P2473, read-out: minimum inhibitory concentration (MIC)
# Protocol: as §1
# [18] = test system: Streptococcus pyogenes 65A; test: as above; format: cell-based; settings: read-out: minimum inhibitory concentration (MIC)
# Protocol: as §1
# Escherichia coli P-5101 [19] = test: In vivo efficacy against systemic infections in mice (intraperitoneal infection); set-up: species or system male mice (ddY); settings: P5101, 168 h, po, twice, about 5 minutes and 6 hours after intraperitoneal infection, observed 7 days
# Protocol: (§2) Each of the solutions was orally administered to mice infected with each of test organisms under the conditions described below, and the medium effective doses (ED50) obtained are shown in Table II. Male mice (ddY) weighing about 20 g (3) Escherichia coli P-5101: Intraperitoneal infection with about 9×10^6 cells per mouse suspended in trypto-soy broth with 4% mucin. Twice, about 5 minutes and 6 hours after infection. |Escherichia coli P-5101 for 7 days | The numerals in the table show ED50 (mg/kg). ED50 values were | calculated in accordance with the BehrensKaerber method (Arch. Exp. Path. | Pharm., 162, 480 (1931)). | po: oral administration.
# [20] = test system: Pseudomonas aeruginosa No. 12; test: as above; set-up: species or system male mice (ddY); settings: NO.12, 168 h, po, twice, about 5 minutes and 6 hours after intraperitoneal infection, observed 7 days
# Protocol: as §2, with “(4) Pseudomonas aeruginosa No. 12:” for “(3) Escherichia coli P-5101:”, “5×10^3” for “9×10^6”, “days |Pseudomonas aeruginosa No. 12” for “days”
# [21] = Corynebacterium pyogenes, C21, read-out: minimum inhibitory concentration (MIC)
# [22] = P2540, Enterobacter cloacae P-2540, agar dilution, read-out: minimum inhibitory concentration (MIC)
# [23] = NIHJJC2, Escherichia coli NIHJ JC-2, agar dilution, read-out: minimum inhibitory concentration (MIC)
# [24] = P140A, Escherichia coli P-140a, agar dilution
# [25] = P5101, Escherichia coli P-5101, agar dilution, read-out: minimum inhibitory concentration (MIC)
# [26] = Klebsiella pneumoniae No. 13, agar dilution, read-out: minimum inhibitory concentration (MIC)
# [27] = P2381, Proteus mirabilis P-2381, agar dilution, read-out: minimum inhibitory concentration (MIC)
# [28] = Proteus morganii Kono, agar dilution
# [29] = Pseudomonas aeruginosa, NO.12, read-out: minimum inhibitory concentration (MIC)
# [30] = Salmonella typhimurium S-9, agar dilution
# [31] = IFO3736, Serratia marcescens IFO 3736, agar dilution, read-out: minimum inhibitory concentration (MIC)
# [32] = Staphylococcus aureus, NO.50774, read-out: minimum inhibitory concentration (MIC)
# [33] = Staphylococcus aureus No. 80, agar dilution, read-out: minimum inhibitory concentration (MIC)
# [34] = Staphylococcus epidermidis No. 8, agar dilution, read-out: minimum inhibitory concentration (MIC)
# [35] = C21, Corynebacterium pyogenes C-21, agar dilution, read-out: minimum inhibitory concentration (MIC)
# [36] = Pseudomonas aeruginosa No. 12, agar dilution, read-out: minimum inhibitory concentration (MIC)
# [37] = Pseudomonas aeruginosa Tsuchiijima, agar dilution
# [38] = Salmonella enteritidis No. 1891, agar dilution
# [39] = Staphylococcus aureus 209P JC-1, agar dilution
# [40] = Staphylococcus aureus No. 50774, agar dilution, read-out: minimum inhibitory concentration (MIC)
# [41] = Staphylococcus aureus Smith, agar dilution
# [42] = Streptococcus pyogenes 65A, agar dilution
# [43] = Enterobacter cloacae, P2540, read-out: minimum inhibitory concentration (MIC)
# [44] = Escherichia coli, NIHJJC2, read-out: minimum inhibitory concentration (MIC)
# [45] = Klebsiella pneumoniae, NO.13, read-out: minimum inhibitory concentration (MIC)
# [46] = Serratia marcescens, IFO3736, read-out: minimum inhibitory concentration (MIC)
# [47] = Staphylococcus aureus, NO.80, read-out: minimum inhibitory concentration (MIC)
# [48] = Staphylococcus epidermidis, NO.8, read-out: minimum inhibitory concentration (MIC)
# [49] = Escherichia coli, P5101, read-out: minimum inhibitory concentration (MIC)
Structure (SMILES),"MIC [2, 22] [µg/mL]","MIC [3, 23] [µg/mL]",MIC (Escherichia coli P-140a; [24]) [µg/mL],MIC (Escherichia coli P-5101 [4]; [25]) [µg/mL],"MIC [5, 26] [µg/mL]",MIC (Proteus mirabilis P-2381; [27]) [µg/mL],MIC (Proteus morganii Kono; [28]) [µg/mL],"MIC [6, 29] [µg/mL]",MIC ([7]; Pseudomonas aeruginosa) [µg/mL],"MIC [9, 30] [µg/mL]","MIC [10, 31] [µg/mL]",MIC (Shigella flexneri 2a) [µg/mL],MIC [11] [µg/mL],"MIC ([12]; Staphylococcus aureus, 209P) [µg/mL]","MIC [13, 32] [µg/mL]",MIC ([15]; Staphylococcus aureus) [µg/mL],MIC [17] [µg/mL],"MIC ([18]; Streptococcus pyogenes, 65A) [µg/mL]","MIC [1, 35] [µg/mL]","MIC [8, 38] [µg/mL]",further results
"CCn1cc(C(=O)O)c(=O)c2ccc(N3CCCC3)nc21 [Compound A, 1-Ethyl-1,4-dihydro-4-oxo-7-(1-pyrrolidinyl)-1,8-naphthyridine-3-carboxylicacid]",> 200,25,3.13,50,> 200,> 200,> 200,> 200,> 200,50,> 200,> 200,6.25,12.5,6.25,6.25,> 200,> 200,,,"MIC [1, 21]: > 200 µg/mL; MIC ([8]; ENTERITIDIS): 6.25 µg/mL; MIC [14, 33]: 3.13 µg/mL; MIC [16, 34]: 3.13 µg/mL"
"CCn1cc(C(=O)O)c(=O)c2cc(Cl)c(N3CCCC3)nc21 [Compound B, 6-Chloro-1-ethyl-1,4-dihydro-4-oxo-7-(1-pyrrolidinyl)-1,8-naphthyridine-3-carboxylic acid]",50,50,50,50,> 100,> 100,> 100,,,50,> 100,50,> 100,,,,> 200,,50,25,"MIC [6, 36]: > 100 µg/mL; MIC [7, 37]: > 100 µg/mL; MIC [12, 39]: 12.5 µg/mL; MIC [13, 40]: 6.25 µg/mL; MIC [14, 33]: 6.25 µg/mL; MIC [15, 41]: 6.25 µg/mL; MIC [16, 34]: 3.13 µg/mL; MIC [18, 42]: 50 µg/mL"
"CCn1cc(C(=O)O)c(=O)c2cc(F)c(N3CCCC3)nc21 [Compound C, 1-Ethyl-6-fluoro-1,4-dihydro-4-oxo-7-(1-pyrrolidinyl)-1,8-naphthyridine-3-carboxylic acid]",,,0.78,0.78,,6.56,,3.13,3.13,0.78,,1.56,3.13,,,,6.25,3.13,0.78,0.39,"MIC [2, 43]: 1.56 µg/mL; MIC [3, 44]: 1.56 µg/mL; MIC [5, 45]: 1.56 µg/mL; MIC (Proteus morganii Kono): 1.56 µg/mL; MIC [10, 46]: 3.13 µg/mL; MIC [12, 39]: 0.39 µg/mL; MIC [13, 40]: 0.2 µg/mL; MIC [14, 47]: 0.2 µg/mL; MIC [15, 41]: 0.39 µg/mL; MIC [16, 48]: 0.39 µg/mL; ED50 (Escherichia coli P-5101 [19]): > 50 mg/kg; ED50 [20]: > 100 mg/kg"
"CCn1cc(C(=O)O)c(=O)c2ccc(C)nc21 [Compound D, 1-Ethyl-1,4-dihydro-7-methyl-4-oxo-1,8-naphthyridine-3-carboxylic acid]",,,1.56,,,,,200,200,,,6.25,3.13,100,50,25,> 200,> 200,,,"MIC [1, 21]: > 200 µg/mL; MIC [2, 43]: 6.25 µg/mL; MIC [3, 44]: 12.5 µg/mL; MIC (Escherichia coli P-5101 [4]; [49]): 3.13 µg/mL; MIC [5, 45]: 12.5 µg/mL; MIC (Proteus mirabilis P-2381; Proteus mirabilis, P2381, read-out: minimum inhibitory concentration (MIC)): 6.25 µg/mL; MIC (Proteus morganii Kono): 6.25 µg/mL; MIC ([8]; ENTERITIDIS): 3.13 µg/mL; MIC ([9]; TYPHIMURIUM): 3.13 µg/mL; MIC [10, 46]: 6.25 µg/mL; MIC [14, 47]: 25 µg/mL; MIC [16, 48]: 25 µg/mL"
"CCn1cc(C(=O)O)c(=O)c2cnc(N3CCCC3)nc21 [Compound E, 8-Ethyl-5,8-dihydro-5-oxo-2-(1-pyrrolidinyl)pyrido[2,3-d]pyrimidine-6-carboxylic acid]",25,25,,,25,50,25,,,25,50,12.5,12.5,12.5,12.5,12.5,> 200,,25,25,"MIC (Escherichia coli P-140a; Escherichia coli): 12.5 µg/mL; MIC (Escherichia coli P-5101 [4]; [49]): 12.5 µg/mL; MIC [6, 36]: 100 µg/mL; MIC [7, 37]: 100 µg/mL; MIC [14, 47]: 12.5 µg/mL; MIC [16, 48]: 12.5 µg/mL; MIC [18, 42]: 200 µg/mL"

# — patent US4341784A, “Naphthyridine derivatives” (priority 1979, dated 1982)
